Experimental data reported in patent EP3300730A1, “THE MEDICAL USE OF 5,7-DIHYDROXY-3-(4-HYDROXYPHENYL)-4H-1-BENZOPIRAN-4-ONE IN THE THERAPY OF HUNTINGTON DISEASE AND PHARMACEUTICALLY ACCEPTABLE FORM OF THE DRUG” (Uniwersytet Gdanski, priority 2016, dated 2018).

Legend:
[1] = tested on: aggregates of mutated huntingtin with lysosomes; assay: Co-localization of mutated huntingtin aggregates with lysosomes (fluorescence microscopy, Pearson coefficient); format: cell-based, human; details: 100 µM genistein; 96 h; HEK293 transfected with pEGFP-Q74; vs DMSO control (Fig. 6)
Protocol: (§1) • Fig. 1. Number and average size of huntingtin aggregates in human embryonic kidney cells transfected with plasmid pEGFP-Q74 (bearing the 1st exon of the HTT gene with 74 CAG repeats), treated with genistein (30, 60 and 100 µM) or DMSO (control cells), in a volume equal to that of genistein, for 48 h. Error bars indicate standard deviation. Statistical analysis was performed with the t-Student test. The differences were considered significant at p<0.05. • Fig. 2. […] Intensity of bands was estimated using the Quantity One software. • Fig. 5. Number (calculated per one cell) and volume of acidic organelles in human embryonic kidney cells transfected with plasmid pEGFP-Q74 (bearing the 1st exon of the HTT gene with 74 CAG repeats), treated with genistein (30, 60 and 100 µM) or DMSO (control cells), in a volume equal to that of genistein, for 96 h. […] The co-localization Pearson factor was calculated by using the ImageJ software. […]
In order to test whether mutant huntingtin is transported into lysosomes for degradation, co-localization of aggregates of mutated huntingtin with lysosomes was assessed using a fluorescent microscope (Fig. 6). […]

mutated huntingtin [2] = assay: Western blotting of mutated huntingtin with lysosomal function inhibited by chloroquine; format: cell-based, human; details: in the presence of 10 µM chloroquine; genistein 30, 60 and 100 µM; 96 h; HEK293 transfected with pEGFP-Q74 (Fig. 7)
Protocol: as §1, with “2. Relative level of mutated huntingtin in human embryonic kidney cells transfected with plasmid pEGFP-Q74 (bearing the 1st exon of the HTT gene with 74 CAG repeats), treated with genistein (30, 60 and 100 µM) or DMSO (control cells), in a volume equal to that of genistein, for 96 h. Actin was used as an internal control. • Fig. 3.” for “2.”

acidic organelles = assay: LysoTracker Red staining of acidic organelles (lysosomes), ImageJ analysis; format: cell-based, human; details: 96 h, HEK293 transfected with pEGFP-Q74, LysoTracker Red (Fig. 5)
Source text: • Fig. 1. […] Error bars indicate standard deviation. […] Error bars indicate standard deviation. […] Error bars indicate standard deviation.

[3] = tested on: human embryonic kidney cells (HEK293) transfected with plasmid pEGFP-Q74; assay: MTT viability test of cells transfected with pEGFP-Q74; format: cell-based; details: genistein 30, 60 and 100 µM, 48 h, MTT test (Fig. 3)
Protocol: as §1, with “2. Relative level of mutated huntingtin in human embryonic kidney cells transfected with plasmid pEGFP-Q74 (bearing the 1st exon of the HTT gene with 74 CAG repeats), treated with genistein (30, 60 and 100 µM) or DMSO (control cells), in a volume equal to that of genistein, for 96 h. Actin was used as an internal control. • Fig. 3.” for “2.”

mutated huntingtin [4] = assay: Western blotting of the mutated huntingtin level; format: cell-based, human; details: HEK293 transfected with pEGFP-Q74; genistein 30, 60 and 100 µM; 96 h; actin internal control (Fig. 2)
Protocol: as §1, with “2. Relative level of mutated huntingtin in human embryonic kidney cells transfected with plasmid pEGFP-Q74 (bearing the 1st exon of the HTT gene with 74 CAG repeats), treated with genistein (30, 60 and 100 µM) or DMSO (control cells), in a volume equal to that of genistein, for 96 h. Actin was used as an internal control. • Fig. 3.” for “2.”

LC3-II protein = assay: Immunodetection (Western blotting) of the autophagy marker LC3-II; format: cell-based, human; details: 96 h
Protocol: as §1, with “2. Relative level of mutated huntingtin in human embryonic kidney cells transfected with plasmid pEGFP-Q74 (bearing the 1st exon of the HTT gene with 74 CAG repeats), treated with genistein (30, 60 and 100 µM) or DMSO (control cells), in a volume equal to that of genistein, for 96 h. Actin was used as an internal control. • Fig. 3.” for “2.”

huntingtin aggregates = assay: Fluorescence microscopy of huntingtin aggregates in transfected cells; format: cell-based, human; details: HEK293 transfected with pEGFP-Q74; genistein 30, 60 and 100 µM; 48 h; vs DMSO control (Fig. 1)
Protocol: as §1, with “2. Relative level of mutated huntingtin in human embryonic kidney cells transfected with plasmid pEGFP-Q74 (bearing the 1st exon of the HTT gene with 74 CAG repeats), treated with genistein (30, 60 and 100 µM) or DMSO (control cells), in a volume equal to that of genistein, for 96 h. Actin was used as an internal control. • Fig. 3.” for “2.”

For `O=c1c(-c2ccc(O)cc2)coc2cc(O)cc(O)c12` [genistein, 5,7-dihydroxy-3-(4-hydroxyphenyl)-4H-1-benzopiran-4-one], the “co-localization of aggregates of mutated huntingtin with lysosomes” value [1] was “increased significantly”, the “level of mutated huntingtin” value (mutated huntingtin [2]) was “did not change significantly” and the “number of acid organelles” value (acidic organelles; 30 µM genistein) was “increase is visible”. For the same molecule, the “volume of acid organelles” value (acidic organelles; 30 µM genistein) was “increase in the volume of acid organelles was evident”, the “number of acid organelles” value (acidic organelles; 100 µM genistein) was “difference relative to the control is significant” and the viability of cells [3] was “increase in viability”. For the same molecule, the “level of mutant huntingtin in cells” value (mutated huntingtin [4]) was “significantly reduces”, the LC3-II protein amount (LC3-II protein; HEK293 transfected with pEGFP-Q74, genistein 30, 60 and 100 µM, vs DMSO control (Fig. 4)) was “genistein-concentration-dependent increase” and the fold induction at 100 µM (LC3-II protein; Homo sapiens, highest genistein concentration (100 µM), HEK293 transfected with pEGFP-Q74 (Fig. 4), read-out: LC3-II protein level relative to control experiment) was ~4. For the same molecule, the “number of mutant huntingtin aggregates in cells” value (huntingtin aggregates) was “decrease in both size and number” and the “size of mutant huntingtin aggregates in cells” value (huntingtin aggregates) was “decrease in both size and number”.
